This note sets out measurements from paper PMC6985242, “Effect of Amoxicillin in combination with Imipenem-Relebactam against Mycobacterium abscessus” (Scientific Reports, 2020).

The structures appear in SMILES notation.

Holding throughout (assay type): biochemical
Test [1] has as its target T1, BlaMab (M. abscessus endogenous class A beta-lactamase) (Mycobacteroides abscessus, UniProt B1MCI3).
T1 construct: gene MAB_2875; -30 residue N-terminal truncated protein, 6x-His tagged
Nature of the test: TLC turnover assay with recombinant BlaMab.

Test [2] deals with T1, BlaMab (M. abscessus endogenous class A beta-lactamase). Nature of the test: nitrocefin hydrolysis kinetics (Ki app, k2/Ki, koff) with recombinant BlaMab; TLC penicillin V assay.
Test [3] has the same target. Description: spectrophotometric hydrolysis at […] nm, Michaelis-Menten (Km across […] relebactam).

T1 sequence (B1MCI3 entry or part of it): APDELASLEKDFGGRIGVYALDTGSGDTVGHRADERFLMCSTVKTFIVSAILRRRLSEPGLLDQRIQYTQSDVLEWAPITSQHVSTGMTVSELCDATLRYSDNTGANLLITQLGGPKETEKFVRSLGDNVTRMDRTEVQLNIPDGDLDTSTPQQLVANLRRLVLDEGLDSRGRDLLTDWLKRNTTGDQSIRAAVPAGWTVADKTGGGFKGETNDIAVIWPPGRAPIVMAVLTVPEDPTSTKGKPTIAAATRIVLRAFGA

Take `CC1(C)S[C@@H]2[C@H](NC(=O)COc3ccccc3)C(=O)N2[C@H]1C(=O)O` [PenV, penicillin V]: in test [1], the “TLC turnover assay with recombinant BlaMab” value is given as “The hydrolysis of penicillin V to penicilloic acid by BlaMab resulted in a spot with reduced Rf value”.

In the case of `O=C(NC1CCNCC1)[C@@H]1CC[C@@H]2CN1C(=O)N2OS(=O)(=O)O` [REL, relebactam], the Ki in test [2] amounted to 184 nM.

As for `O=C(Cc1cccs1)N[C@@H]1C(=O)N2C(C(=O)O)=C(/C=C/c3ccc([N+](=O)[O-])cc3[N+](=O)[O-])CS[C@H]12` [nitrocefin], in test [3], the Km is on record as 69.43–16.96 µM.
